Results published in article PMC9841524, “Structure-Based Rational Design of Small α-Helical Peptides with Broad-Spectrum Activity against Multidrug-Resistant Pathogens” (Journal of Medicinal Chemistry, 2022).
In brackets after ≈: the same amount, converted by molar mass. Read-outs that look alike come from different tables or passages of the source. Where a SMILES comes first, the peptide text is derived from it. Bridges are numbered along the chain shown (N, C = ends). [ ]: non-standard residue; d: D form. The star is where a group is joined. X1 = CC[C@H](C)CCCCC(=O)*; Dab = NCC[C@H](N)C(=O)O

Legend:
[1] = tested on: E. coli (ATCC BAA-2452); details: Gram-negative, NDM-1; CLSI microdilution, CAMHB, 37 °C, 24 h; highest MIC of three independent experiments in triplicate
Procedure, shortened: (§1)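 Broth microdilution per CLSI: overnight cultures diluted in cation-adjusted Mueller Hinton Broth to 10^6 CFU/mL, mixed with 2-fold serial peptide dilutions, incubated 37 °C for 24 h. MIC = lowest peptide concentration inhibiting growth. Three independent assays in triplicate.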

[2] = tested on: P. aeruginosa (ATCC BAA-1744); details: Gram-negative, resistant strain (marked a; imipenem resistant in Table S3); CLSI microdilution, CAMHB, 37 °C, 24 h; highest MIC of three independent experiments in triplicate
Procedure, shortened: as §1

[3] = tested on: Klebsiella pneumonia (ATCC 13883); details: Gram-negative; CLSI microdilution, CAMHB, 37 °C, 24 h; highest MIC of three independent experiments in triplicate
Procedure, shortened: as §1

[4] = tested on: P. aeruginosa (ATCC 10145); details: Gram-negative; CLSI microdilution, CAMHB, 37 °C, 24 h; highest MIC of three independent experiments in triplicate
Procedure, shortened: as §1

[5] = tested on: E. coli (ATCC 25922); details: for MIC, E. coli (ATCC 25922): broth microdilution (CLSI), CAMHB, 37 °C, 24 h
Procedure, shortened: as §1

[6] = tested on: K. pneumonia (ATCC BAA-2470); details: Gram-negative, carbapenem-resistant; CLSI microdilution, CAMHB, 37 °C, 24 h; highest MIC of three independent experiments in triplicate
Procedure, shortened: as §1

[7] = tested on: A. baumannii (ATCC BAA1605); details: Gram-negative, footnote e ciprofloxacin (MDR in Table S3); CLSI microdilution, CAMHB, 37 °C, 24 h; highest MIC of three independent experiments in triplicate
Procedure, shortened: as §1

[8] = tested on: E. coli (ATCC BAA-2452); assay: Flow cytometric analysis of PI-stained cells; assay type: cell-based; details: MIC and 4 × MIC, 1 h, flow cytometry
Description: The flow cytometric analysis was performed by using MRSA (ATCC BAA-1556) and E. coli (ATCC BAA-2452) cultures grown to the mid log phase in Mueller Hinton broth (HIMEDIA). Before treatment, bacterial cells were washed thrice with buffer (10 mM Tris, pH 7.4) and resuspended in the same buffer to obtain 10^7 CFU/mL bacterial suspensions. Test peptides (8a and 8b) and the standard antibiotics (daptomycin and polymyxin B) at MIC and 4 × MIC were incubated with bacterial suspension for 1 h. Following the treatment with test peptides, the cells were pelleted by centrifugation at 3000g for 15 min in a microcentrifuge. The supernatant was decanted, and the cells were washed with PBS several times and then incubated with PI ([…]) in the dark for 15 min at 37 °C. FACS analysis of the stained bacterial cells was performed using a FACscan flow cytometer (BD Accuri C6, BD Biosciences, California, USA), and data were analyzed by using Cell Quest software.

[9] = tested on: K. pneumoniae (ATCCBAA-1705); assay: MIC, standard microtiter dilution (CLSI); assay type: cell-based, Klebsiella pneumoniae; details: broth microdilution (CLSI), CAMHB, 37 °C, 24 h
Procedure, shortened: as §1

[10] = tested on: P. aeruginosa (ATCC 27883); assay: MIC, standard microtiter dilution (CLSI); assay type: cell-based, Pseudomonas aeruginosa; details: broth microdilution (CLSI), CAMHB, 37 °C, 24 h
Procedure, shortened: as §1

[11] = tested on: E. coli (ATCC BAA-2452); assay: Bactericidal kinetic assay; assay type: cell-based
Description: The time course of bacterial killing was studied by the exposure of overnight grown cultures of MRSA (ATCC BAA-1556) and E. coli (ATCC BAA-2452) to 8a and 8b at the MIC and 4× the MIC in Muller Hinton media. Bacterial cells (2 × 10^6 CFU/mL) were treated with peptides and standard antibiotics and incubated at 37 °C. Aliquots were withdrawn at a 30 min time interval for 4 h and plated on the agar plate to determine the number of viable bacterial colonies. Data were obtained from two independent experiments performed in triplicate.

[12] = tested on: E. faecium (ATCC 700221); assay: microbe, parasite or virus in culture; details: Enterococcus faecium, ATCC700221, 24 h, read-out: MIC, E. faecium (ATCC 700221)
Description: (§2) Description of the characteristics and growth conditions of various bacterial strains used in the study are provided in the Supporting Information (Table S3). Antibacterial susceptibility testing was carried out using a standard microtiter dilution method recommended by the clinical and laboratory standard institute (CLSI) and measured as a minimum inhibitory concentration (MIC), the lowest peptide concentration that inhibited bacterial growth. Briefly, the overnight grown cultures in the recommended broth for each bacterial strain were diluted in cation-adjusted Mueller Hinton Broth (CAMHB) to give an inoculum of 10^6 colony-forming units (CFU)/mL. A 2-fold serially diluted test peptide solution (100 μL) was added to the microtiter plates. After adding bacterial suspension (100 μL), the plates were incubated at 37 °C for 24 h, and the MICs were determined. The same protocol was used to determine the MICs in the presence of salts and serum except using the media supplemented with various cationic salts (150 mM NaCl, 4.5 mM KCl, 6 mM NH4Cl, 1 mM MgCl2, and 2 mM CaCl2) or 25% FBS. The data was acquired from three independent assays performed in triplicate.
(§3) The bacterial strains employed in this study were obtained from the American Type Culture Collection (ATCC). Each strain was propagated as recommended by the ATCC, and each strain was stored as a frozen glycerol stock at -80°C. A bacterial colony was grown on the appropriate agar as indicated in Table S1 and was used to inoculate the appropriate broth. The culture was incubated at the appropriate conditions, as mentioned in Table S1. Following the incubation, the culture was diluted to an optical density 625 nm (OD625) of 0.1 in cation adjusted Mueller Hinton Broth (CAMHB), which is equivalent to 1 × 10^8 CFU/mL. The culture was further diluted to 1 × 10^6 CFU/mL, which was used to conduct the MIC determination assay. For the S. pneumoniae strains, CAMHB + 2.5% lysed horse blood was required for the assay. The strains with their […]
(§4) Table S3. Description of the characteristics and growth conditions of various bacterial strains

[13] = tested on: E. faecium (ATCC 27270); assay: microbe, parasite or virus in culture; details: Enterococcus faecium, ATCC27270, 24 h, read-out: MIC, E. faecium (ATCC 27270)
Description: as §2, §3, §4

[14] = tested on: E. faecalis (ATCC 51575); assay: microbe, parasite or virus in culture; details: Enterococcus faecalis, ATCC51575, 24 h, read-out: MIC, E. faecalis (ATCC 51575)
Description: as §2, §3, §4

[15] = 10^6 CFU/mL, highest MIC of three independent experiments in triplicate

SMILES: CC[C@H](C)CCCCC(=O)N[C@@H](CCN)C(=O)N[C@H](C(=O)N[C@@H](CCN)C(=O)N[C@H]1CCNC(=O)[C@H]([C@@H](C)O)NC(=O)[C@H](CCN)NC(=O)[C@H](CCN)NC(=O)[C@H](CC(C)C)NC(=O)[C@@H](Cc2ccccc2)NC(=O)[C@H](CCN)NC1=O)[C@@H](C)O [polymyxin B, reference compound] (X1-[Dab]T[Dab][Dab][Dab][dF]L[Dab][Dab]T; lactam 4-C (inferred); N-terminus assumed)
- MIC, E. coli (ATCC BAA-2452) [1]: 0.7 mg/L
- MIC, P. aeruginosa (ATCC BAA-1744) [2]: 0.7 mg/L
- MIC, Klebsiella pneumonia (ATCC 13883) [3]: 6.2 mg/L
- MIC, P. aeruginosa (ATCC 10145) [4]: 0.7 mg/L
- MIC, E. coli (ATCC 25922), Control ([5]; MH media without salt ions or serum, three independent experiments in triplicate): 0.7 mg/L
- MIC, E. coli (ATCC 25922) [5, 15]: 0.7 mg/L
- MIC, E. coli (ATCC 25922), MgCl2 ([5]; media with 1 mM MgCl2, three independent experiments in triplicate): 1.5 mg/L (≈ 1.25 µM)
- MIC, E. coli (ATCC 25922), CaCl2 ([5]; media with 2 mM CaCl2, three independent experiments in triplicate): 0.7 mg/L (≈ 0.582 µM)
- MIC, E. coli (ATCC 25922), KCl ([5]; media with 4.5 mM KCl, three independent experiments in triplicate): 0.7 mg/L (≈ 0.582 µM)
- MIC, E. coli (ATCC 25922), NH4Cl ([5]; media with 6 mM NH4Cl, three independent experiments in triplicate): 0.7 mg/L (≈ 0.582 µM)
- MIC, E. coli (ATCC 25922), NaCl ([5]; media with 150 mM NaCl, three independent experiments in triplicate): 0.7 mg/L (≈ 0.582 µM)
- MIC, E. coli (ATCC 25922), FBS (25%) ([5]; media with 25% fetal bovine serum, three independent experiments in triplicate): 3.1 mg/L (≈ 2.58 µM)
- MIC, E. coli (ATCC 25922) ([5]; value in parentheses (μM)): 0.58 µM
- MIC, K. pneumonia (ATCC BAA-2470) [6]: 1.5 mg/L
- MIC, A. baumannii (ATCC BAA1605) [7]: 0.7 mg/L
- PI-stained population of E. coli cells [8]: did not significantly increase
- MIC, K. pneumoniae (ATCCBAA-1705) [9, 15]: 0.7 mg/L
- MIC, K. pneumoniae (ATCCBAA-1705) ([9]; value in parentheses (μM)): 0.58 µM
- MIC, P. aeruginosa (ATCC 27883) [10, 15]: 1.5 mg/L
- MIC, P. aeruginosa (ATCC 27883) ([10]; value in parentheses (μM)): 1.25 µM
- time to complete eradication of E. coli cells at 4 × MIC [11]: 2.5 h

SMILES: CN[C@H](CC(C)C)C(=O)N[C@H]1C(=O)N[C@@H](CC(N)=O)C(=O)N[C@H]2C(=O)N[C@H]3C(=O)N[C@H](C(=O)N[C@H](C(=O)O)c4cc(O)cc(O)c4-c4cc3ccc4O)[C@H](O)c3ccc(c(Cl)c3)Oc3cc2cc(c3O[C@@H]2O[C@H](CO)[C@@H](O)[C@H](O)[C@H]2O[C@H]2C[C@](C)(N)[C@H](O)[C@H](C)O2)Oc2ccc(cc2Cl)[C@H]1O [vancomycin, reference compound]
- MIC [12]: > 50 mg/L
- MIC [13]: 1.5 mg/L (≈ 1.04 µM)
- MIC [14]: > 50 mg/L
